{"source": "paper PMC4891657", "about": "“Orexin 2 Receptor Antagonism is Sufficient to Promote NREM and REM Sleep from Mouse to Man” (Scientific Reports, 2016)", "key": {"[1]": {"experiment": "Pharmacokinetics, ascending single-dose study in healthy male subjects", "assay_type": "in vivo", "settings": "human, plasma, single oral doses 5 to 250 mg; for half-life: male, po", "experimental": "In the ascending single-dose study, doses of MK-1064 ranging from 5 to 250 mg corresponded with dose-dependent changes in measured plasma levels (Fig. 6a). […] The greatest effects were observed between 1 and 4 hours, and effects greatly diminished 8 hours following treatment, consistent with the time course of plasma concentrations of MK-1064.\n(§1) MK-1064 safety, PK and PD were evaluated in a randomised, double-blind, placebo-controlled, alternating panel, single oral ascending-dose first-in-human study (see Fig. 5). Participants were unmedicated healthy male subjects (age 18–45 years) without a history of physical or mental illnesses or sleep abnormalities. Two panels received alternating single ascending oral doses of MK-1064 in up to 5 treatment periods (Panel A: 5, 25, 100 and 200 mg [fasting conditions], 25 mg [fed condition], or matching placebo; Panel B: 10, 50, 150 and 250 mg [all daytime administration], 50 mg [evening administration], or matching placebo). Within each period, subjects were randomized to active treatment (N = 6) and placebo (N = 2) groups. There was a minimum of 3 days between ascending doses occurring between alternating subject panels to enable safety data review; treatments within subject panels were separated by a minimum 7-day washout period. The safety and tolerability of MK-1064 were monitored throughout the study by repeated evaluations of AEs, clinical assessments (semi-recumbent and orthostatic vital signs measurements, 12-lead electrocardiograms (ECGs), physical examinations, neurologic examinations), and safety laboratory tests (chemistry, hematology, urinalysis).\nDuring each treatment period, blood was collected for PK analysis pre-dose and at time points up to 72 hours post-dose. MK-1064 plasma concentrations were determined by reverse phase high-performance liquid chromatography and detected with tandem mass spectrometry. The lower limit of quantitation was 1 ng/mL and the linear calibration range was 1–1000 ng/mL. PK parameters were calculated with WinNonLin 5.2.1. Values below the assay limit of quantification were indicated with a zero value. PD effects on arousal and mood were assessed by the Karolinska Sleepiness Scale (KSS)[45] and Bond and Lader Visual Analogue Scale (VAS)[46] in exploratory endpoints."}, "[2]": {"experiment": "Dog plasma free fraction", "assay_type": "in vitro ADME"}, "[3]": {"test_system": "sleep/wake stages", "experiment": "Polysomnography in telemetered dogs", "assay_type": "in vivo, dog", "description": "The mean time spent in sleep stages was determined in radio-telemetry–implanted mice, rats, and dogs, as described previously[1][14][40][42]. Continuous PSG recordings were performed following oral MK-1064 or vehicle (20% vitamin E d-alpha tocopheryl polyethylene glycol 1000 succinate [TPGS]) administration. In rodents, electrocorticogram (ECoG) and electromyogram (EMG) and locomotor activity measured via radio-telemetry were scored in 10 second epochs to define light sleep (LS; no movement, moderate EMG tone, theta with <50% delta ECoG [0.5–4 Hz]), slow wave sleep (SWS; no gross movement, reduced EMG, >50% delta ECoG) and rapid eye movement sleep (REM; no movement, little to no EMG activity, primarily theta ECoG [4–7 Hz] activity)[42]. Scored data were then grouped and compiled according to condition (vehicle or compound treatment) averaged over the indicated times (30 minutes or 2 hours) and analyzed statistically as previously described[1][14][40][42] […]\nMean times in active wake, NREM I, NREM II, and REM sleep were monitored continuously. Vehicle and compound treatment conditions were consolidated into 24-hour periods for each animal, and the mean time spent in each sleep stage for the 2 hours following treatment was determined and significance determined by t-test."}, "[4]": {"experiment": "Safety and tolerability, ascending single-dose study", "assay_type": "in vivo, human", "from_the_text": "In the ascending single-dose study, 52 AEs were considered to be related to the study drug, the most common of which was somnolence/sleepiness, drowsiness, and tiredness (15 of 16 subjects dosed with MK-1064), consistent with the intended pharmacological activity. […] In the PSG study, 13 of the 20 subjects enrolled reported ≥1 clinical AE. Of 24 clinical AEs reported, 18 were considered to be related to study treatment, all of which were mild or moderate in intensity. One report of transient sleep paralysis following MK-1064 250 mg was noted, while the most common MK-1064-related AEs were headache (3 subjects), nightmares (2 subjects) and dizziness (1 subject) (Supplementary Table 2).\nas §1"}, "[5]": {"test_system": "sleep/wake stages", "experiment": "Polysomnography in telemetered wild-type and OX2R knockout mice", "assay_type": "in vivo, mouse", "settings": "30 mg/kg oral", "description": "Polysomnography (PSG) responses to MK-1064 (30 mg/kg) were evaluated following oral administration during the late active phase (administered at Zeitgeber time [ZT] 20:00) either in wild-type or OX2R knockout telemetered mice.\n(a) The mean time spent in active wake, light sleep (LS), SWS, and REM sleep during 30-min intervals was determined in wild-type (left panel; n = 5) and OX2R knockout (right panel; n = 7) mice following administration of MK-1064 30 mg/kg (open circles) relative to vehicle (20% vitamin E TPGS, orally; closed circles) during the late active phase (ZT: 20:00). Time points at which significant differences exist between vehicle and MK-1064 responses are indicated by grey vertical lines (*, **, ***p < 0.05, 0.01, 0.001, respectively; linear mixed-effects model for repeated measures).\nContinuous PSG recordings were performed following oral MK-1064 or vehicle (20% vitamin E d-alpha tocopheryl polyethylene glycol 1000 succinate [TPGS]) administration. In rodents, electrocorticogram (ECoG) and electromyogram (EMG) and locomotor activity measured via radio-telemetry were scored in 10 second epochs to define light sleep (LS; no movement, moderate EMG tone, theta with <50% delta ECoG [0.5–4 Hz]), slow wave sleep (SWS; no gross movement, reduced EMG, >50% delta ECoG) and rapid eye movement sleep (REM; no movement, little to no EMG activity, primarily theta ECoG [4–7 Hz] activity)[42]. Scored data were then grouped and compiled according to condition (vehicle or compound treatment) averaged over the indicated times (30 minutes or 2 hours) and analyzed statistically as previously described[1][14][40][42]\nIn male wild-type and Hcrtr1 and 2 homozygous, double knockout mice (Taconic Farms, Germantown, NY), MK-1064 or vehicle was administered during the late active phase (ZT: 20:00, 4 hours before lights on). The effect of compound treatment was assessed using a counterbalanced crossover design in which all animals were alternately treated with drug and vehicle daily for 5 consecutive days with a 2-day intervening washout period. In both mice and rats, the mean time in active wake, LS, SWS and REM sleep was determined for each 30-minute interval. The level of significance for the differences between mean time spent in each stage between the vehicle- and compound-treated groups was determined by a linear mixed-effects model for repeated measures applied t-test, and mean within-subject change relative to vehicle over 2 hours following dosing was analyzed using within-subject ANOVA to determine main effects and one sample t-test to identify significant changes relative to vehicle."}, "[6]": {"settings": "wild-type mice, ZT 20:00, vs vehicle"}}, "note": "Like-named read-outs stand apart in the source and are kept apart here.", "data": [{"smiles": "COc1ccc(CNC(=O)c2cc(-c3cncc(Cl)c3)cnc2-c2ccccn2)nc1OC", "note": "[MK-1064, 5″-chloro-N-[(5,6-dimethoxypyridin-2-yl)methyl]-2,2′:5′, 3″-terpyridine-3′-carbo xamide]", "values": [{"measurement": "Cmax", "setting": "[1]", "result": "0.37 to 8.28", "unit": "µM"}, {"measurement": "Tmax", "setting": "[1]; read-out: median time of peak concentrations (Tmax)", "result": "1 to 2", "unit": "h"}, {"measurement": "half-life", "setting": "[1]; read-out: alpha phase half-life", "result": "1.6 to 4", "unit": "h"}, {"measurement": "half-life", "setting": "[1]; read-out: mean apparent terminal half-life", "result": "6.8 to 11.1", "unit": "h"}, {"measurement": "fraction unbound", "setting": "[2]", "result": 0.286}, {"measurement": "active wake (with increases in NREM I, NREM II and REM sleep)", "setting": "[3]; 1 mg/kg oral, 1 hour following administration vs vehicle", "result": "Significant active wake reductions"}, {"measurement": "REM sleep in the hour following administration", "setting": "[3]; 20 mg/kg oral, vs vehicle, increased at several later time points", "result": "not significantly increased"}, {"measurement": "subjects who experienced headaches", "setting": "[4]; ascending single-dose study", "result": "Nine"}, {"measurement": "suspected serious adverse reactions", "setting": "[4]; ascending single-dose study", "result": "no suspected serious adverse reactions were observed"}, {"measurement": "AEs considered to be related to the study drug", "setting": "[4]; ascending single-dose study, 5–250 mg", "result": 52}, {"measurement": "subjects with somnolence/sleepiness, drowsiness, and tiredness", "setting": "[4]; ascending single-dose study, subjects dosed with MK-1064", "result": "15 of 16"}, {"measurement": "tolerability", "setting": "[4]; both Phase I studies, healthy male subjects", "result": "well tolerated"}, {"measurement": "changes in wake, SWS and REM in OX2R knockout mice", "setting": "[5]; OX2R knockout mice, ZT 20:00", "result": "absent"}, {"measurement": "time following treatment with active wake reduction and significant increases in SWS and REM", "setting": "[5]; wild-type mice, ZT 20:00", "result": "up to 3.5 hours"}, {"measurement": "REM quantitated over 2 hours", "setting": "[5]; [6]", "result": "trend toward an increase"}, {"measurement": "changes in wake and SWS quantitated over 2 hours", "setting": "[5]; [6]", "result": "reached significance"}]}]}
